The record followed here is paper PMC9645260, “Small-molecule inhibitors of P-Rex guanine-nucleotide exchange factors” (Small GTPases, 2022).

Molecules are shown by their SMILES.

Experiment [1] addresses T1, P-Rex1 DHPH domain (Homo sapiens, UniProt Q8TCU6).
T1 construct: 100 nM EE-P-Rex1 DHPH domains (PREX-in1, compounds 2–10 and 30–128); made in house; host or cells: Sf9 cells (baculovirus)
The experiment is described as follows: Mant-GTP GEF activity assay. It is filed as biochemical. The procedure:
The mant-GTP GEF activity assay measures the binding of fluorescent 2’/3’-O-(N-Methyl-anthraniloyl)-guanosine-5’-triphosphate (mant)-GTP to Rac, making use of the spectroscopic differences between bound and free mant-GTP. P-Rex1 DHPH domain protein was diluted to 375 nM in exchange buffer (20 mM Tris, pH 7.5 RT, 50 mM NaCl, 200 mM KCl, 4 mM MgCl2, 50 μg/ml fatty-acid-free BSA). The inhibitors PREX-in1 or EHop-016 were diluted to various concentrations in exchange buffer containing 15% DMSO. 4.4 µl P-Rex1 DHPH domain protein were incubated with 1.1 µl PREX-in1 or EHop-016 for 30 min at 30°C, or were mock treated with 1.1 µl vehicle (15% DMSO). 5 μl of the P-Rex1 DHPH / inhibitor mix was then added to 10 µl of a 1.5x reaction mix containing 225 nM bacteria-derived EE-Rac1, 7.5 µM mant-GTP and 15 µM GTP in exchange buffer in a 96-well plate. Final assay concentrations were 150 nM EE-Rac1, 100 nM P-Rex1 DHPH domain, 5 μM mant-GTP, 10 µM GTP, […] fatty-acid-free BSA, 1% DMSO, and the indicated concentrations of inhibitor. Mant-GTP fluorescence was measured in real time in a PHERAstar 384-well fluorescence plate reader at 25°C for 40 min using 360 nm excitation and 440 nm emission.

The test system of experiment [2] is primary mouse neutrophils. Briefly: Neutrophil ROS production, PMA-stimulated. It is filed as cell-based. The following applies: 1 µM, 500 nM PMA. On the procedure:
Prex^−/− mice (Prex1^−/−Prex2^−/−) with general P-Rex deficiency were described previously and were compared to Prex^+/+ (Prex1^+/+Prex2^+/+) control mice on the same genetic background (C57Bl6/129Ola backcrossed seven times to C57Bl6). Mice were group-housed (up to 5) under specific opportunistic pathogen-free isolator conditions in Babraham’s small animal barrier facility that uses 12 h light/dark cycles with dusk and dawn settings, and were fed chow diet and water ad libitum. Mice from both sexes were used for experiments, at young-adult age (between 8 and 14 weeks), and were sex- and age-matched between genotypes within experiments. […]
Mature primary neutrophils were isolated from the bone marrow of age- and sex-matched Prex^+/+ and Prex^−/− mice freshly each day at 4°C, using Percoll^Plus (GE Healthcare) gradient, as described, using endotoxin-free media throughout. Isolated neutrophils were 70–90% pure, as assessed by KwikDiff staining of cytospins. ROS production was measured by real-time chemiluminescence assay as described, except that neutrophils were incubated with PREX-in1 before the assay. […] Real-time ROS production was recorded in a Berthold MicroLumat Plus luminometer (Berthold Technologies) at 37°C, for 2.5 min with fMLP stimulation or for 10 min with PMA stimulation. […]

T1 sequence (Q8TCU6 49-392 limits assumed): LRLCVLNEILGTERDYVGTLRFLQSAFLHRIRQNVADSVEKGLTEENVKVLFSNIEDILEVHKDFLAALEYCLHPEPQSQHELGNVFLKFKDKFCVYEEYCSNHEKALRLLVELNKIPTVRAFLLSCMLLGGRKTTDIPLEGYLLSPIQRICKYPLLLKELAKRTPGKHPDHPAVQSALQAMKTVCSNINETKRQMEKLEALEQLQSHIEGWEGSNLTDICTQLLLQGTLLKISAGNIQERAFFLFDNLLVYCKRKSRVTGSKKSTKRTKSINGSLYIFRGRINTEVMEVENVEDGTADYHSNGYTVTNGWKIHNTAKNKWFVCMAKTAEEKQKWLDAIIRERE

The IC50 is the concentration that inhibits the measured activity by half. In the case of `COc1ccc(-c2[nH]nc3c2C(c2ccc(-c4ccc(Cl)cc4)o2)C(C#N)=C(N)O3)cc1` (stereo not drawn) [PREX-in1, 6-amino-4-[5-(4-chlorophenyl)-2-furyl]-3-(4-methoxyphenyl)-2,4-dihydropyrano[2,3-c]pyrazole-5-carbonitrile], in experiment [1] (150 nM EE-Rac1, 100 nM P-Rex1 DHPH, read-out: IC50 of inhibition of P-Rex1 DHPH in mant-GTP assay), the concentration for half-maximal inhibition (IC50) is about 10 µM. For the same molecule, the “effect on P-Rex1 DHPH-dependent mant-GTP loading of Rac1” value in experiment [1] (10 µM) is recorded as “inhibited”. Besides, the “effect on PMA-induced ROS response” value in experiment [2] is listed as “unaffected”.
